ChEMBL document CHEMBL1201862, “PubChem BioAssay data set” (2004)
Activity calls are given as the source filed them.

What was measured:
[1] = target: DNA (cytosine-5)-methyltransferase 1 (Homo sapiens, UniProt P26358); assay: inhibition of DNA methylation by DNMT1 – biochemical, fluorescent molecular beacon, confirmation (AID 602386); assay type: functional
[2] = target: T1, Voltage-gated N-type calcium channel alpha-1B subunit/Amyloid beta A4 precursor protein-binding family A member 1 (Homo sapiens, UniProt Q00975+Q02410); assay type: protein assay
T1 sequence (Q00975 whole entry): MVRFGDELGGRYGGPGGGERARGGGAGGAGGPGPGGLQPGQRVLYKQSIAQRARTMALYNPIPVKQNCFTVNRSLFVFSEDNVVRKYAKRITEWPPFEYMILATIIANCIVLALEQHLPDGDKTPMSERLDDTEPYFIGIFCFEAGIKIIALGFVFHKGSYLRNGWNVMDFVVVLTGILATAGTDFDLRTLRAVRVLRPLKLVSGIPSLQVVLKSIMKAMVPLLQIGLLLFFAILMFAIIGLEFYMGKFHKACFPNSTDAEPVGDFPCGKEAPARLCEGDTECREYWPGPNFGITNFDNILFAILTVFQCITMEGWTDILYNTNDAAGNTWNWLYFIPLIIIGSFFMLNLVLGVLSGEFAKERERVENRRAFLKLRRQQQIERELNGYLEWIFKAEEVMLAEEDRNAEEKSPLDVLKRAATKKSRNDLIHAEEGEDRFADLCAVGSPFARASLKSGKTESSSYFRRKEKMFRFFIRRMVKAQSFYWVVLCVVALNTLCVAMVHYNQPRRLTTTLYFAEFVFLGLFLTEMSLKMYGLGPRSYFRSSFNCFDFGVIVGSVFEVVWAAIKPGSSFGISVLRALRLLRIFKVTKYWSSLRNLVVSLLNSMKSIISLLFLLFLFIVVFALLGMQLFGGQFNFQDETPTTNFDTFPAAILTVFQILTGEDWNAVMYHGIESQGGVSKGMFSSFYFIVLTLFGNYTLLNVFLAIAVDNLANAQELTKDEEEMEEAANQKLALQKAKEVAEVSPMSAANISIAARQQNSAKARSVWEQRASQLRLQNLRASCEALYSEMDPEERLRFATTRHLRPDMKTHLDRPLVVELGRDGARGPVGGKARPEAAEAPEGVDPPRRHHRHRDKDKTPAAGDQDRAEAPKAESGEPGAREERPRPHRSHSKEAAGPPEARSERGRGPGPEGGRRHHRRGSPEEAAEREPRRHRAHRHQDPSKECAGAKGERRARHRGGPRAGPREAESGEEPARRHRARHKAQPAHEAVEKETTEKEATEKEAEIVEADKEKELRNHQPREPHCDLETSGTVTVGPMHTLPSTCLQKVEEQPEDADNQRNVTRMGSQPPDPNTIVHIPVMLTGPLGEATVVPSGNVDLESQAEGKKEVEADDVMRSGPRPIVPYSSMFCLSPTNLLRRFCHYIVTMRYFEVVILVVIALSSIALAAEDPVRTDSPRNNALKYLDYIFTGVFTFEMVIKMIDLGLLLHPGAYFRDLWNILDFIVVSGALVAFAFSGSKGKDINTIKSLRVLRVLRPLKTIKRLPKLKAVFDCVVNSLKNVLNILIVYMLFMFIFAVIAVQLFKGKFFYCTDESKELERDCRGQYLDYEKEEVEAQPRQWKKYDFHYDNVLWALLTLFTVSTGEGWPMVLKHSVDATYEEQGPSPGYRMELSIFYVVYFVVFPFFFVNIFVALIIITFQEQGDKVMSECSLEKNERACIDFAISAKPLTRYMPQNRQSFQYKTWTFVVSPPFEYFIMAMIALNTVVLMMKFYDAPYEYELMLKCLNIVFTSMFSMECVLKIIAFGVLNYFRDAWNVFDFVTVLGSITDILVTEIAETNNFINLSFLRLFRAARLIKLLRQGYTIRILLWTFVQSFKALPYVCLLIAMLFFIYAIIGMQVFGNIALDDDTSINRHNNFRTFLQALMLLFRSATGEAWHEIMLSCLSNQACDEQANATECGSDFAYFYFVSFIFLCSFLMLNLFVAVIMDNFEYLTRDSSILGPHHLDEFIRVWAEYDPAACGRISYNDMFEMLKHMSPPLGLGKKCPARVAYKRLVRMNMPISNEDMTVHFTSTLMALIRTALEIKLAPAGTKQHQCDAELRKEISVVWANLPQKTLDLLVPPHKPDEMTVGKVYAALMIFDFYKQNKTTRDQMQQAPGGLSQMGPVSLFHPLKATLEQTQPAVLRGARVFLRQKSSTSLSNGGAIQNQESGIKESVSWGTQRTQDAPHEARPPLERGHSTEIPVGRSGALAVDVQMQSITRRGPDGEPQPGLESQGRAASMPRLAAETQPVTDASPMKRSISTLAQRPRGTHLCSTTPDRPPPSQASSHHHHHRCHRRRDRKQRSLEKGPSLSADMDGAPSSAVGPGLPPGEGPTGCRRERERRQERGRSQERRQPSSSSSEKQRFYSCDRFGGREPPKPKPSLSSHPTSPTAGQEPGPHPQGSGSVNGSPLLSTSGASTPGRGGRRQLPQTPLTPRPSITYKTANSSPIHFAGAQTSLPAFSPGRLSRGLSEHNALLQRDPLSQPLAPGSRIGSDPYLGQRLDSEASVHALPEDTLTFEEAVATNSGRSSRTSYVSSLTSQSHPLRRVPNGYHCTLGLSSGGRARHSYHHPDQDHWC
T1 sequence (Q02410 whole entry): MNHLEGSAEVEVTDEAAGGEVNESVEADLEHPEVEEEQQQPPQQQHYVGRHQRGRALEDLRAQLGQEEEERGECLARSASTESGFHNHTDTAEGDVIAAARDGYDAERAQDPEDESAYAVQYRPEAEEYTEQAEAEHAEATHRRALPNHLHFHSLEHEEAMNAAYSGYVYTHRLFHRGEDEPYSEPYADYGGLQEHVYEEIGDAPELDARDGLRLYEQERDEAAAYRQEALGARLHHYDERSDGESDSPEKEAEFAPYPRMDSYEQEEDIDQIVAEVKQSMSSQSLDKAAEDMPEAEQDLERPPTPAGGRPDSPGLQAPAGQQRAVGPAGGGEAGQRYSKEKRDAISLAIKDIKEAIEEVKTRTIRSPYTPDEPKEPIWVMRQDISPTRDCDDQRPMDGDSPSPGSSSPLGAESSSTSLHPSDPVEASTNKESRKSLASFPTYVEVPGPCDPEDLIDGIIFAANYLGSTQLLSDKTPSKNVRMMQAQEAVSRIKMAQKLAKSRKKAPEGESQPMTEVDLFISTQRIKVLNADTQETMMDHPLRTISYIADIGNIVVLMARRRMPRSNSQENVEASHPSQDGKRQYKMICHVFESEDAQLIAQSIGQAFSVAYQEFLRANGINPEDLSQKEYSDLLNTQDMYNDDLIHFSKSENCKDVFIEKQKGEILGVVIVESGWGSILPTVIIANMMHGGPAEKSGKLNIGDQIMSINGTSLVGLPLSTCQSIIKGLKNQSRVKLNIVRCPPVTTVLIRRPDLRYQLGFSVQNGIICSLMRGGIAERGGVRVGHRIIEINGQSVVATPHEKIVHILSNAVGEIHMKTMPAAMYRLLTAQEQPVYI

[3] = target: T1, Voltage-gated N-type calcium channel alpha-1B subunit/Amyloid beta A4 precursor protein-binding family A member 1; assay type: protein assay; remark: listed apart in the source
[4] = target: Polyadenylate-binding protein 1 (Homo sapiens, UniProt P11940); assay: blockers of PABP interaction with poly(A) – biochemical, fluorescence polarization, […] (AID 2014)
Chain of Polyadenylate-binding protein 1 (P11940 whole entry): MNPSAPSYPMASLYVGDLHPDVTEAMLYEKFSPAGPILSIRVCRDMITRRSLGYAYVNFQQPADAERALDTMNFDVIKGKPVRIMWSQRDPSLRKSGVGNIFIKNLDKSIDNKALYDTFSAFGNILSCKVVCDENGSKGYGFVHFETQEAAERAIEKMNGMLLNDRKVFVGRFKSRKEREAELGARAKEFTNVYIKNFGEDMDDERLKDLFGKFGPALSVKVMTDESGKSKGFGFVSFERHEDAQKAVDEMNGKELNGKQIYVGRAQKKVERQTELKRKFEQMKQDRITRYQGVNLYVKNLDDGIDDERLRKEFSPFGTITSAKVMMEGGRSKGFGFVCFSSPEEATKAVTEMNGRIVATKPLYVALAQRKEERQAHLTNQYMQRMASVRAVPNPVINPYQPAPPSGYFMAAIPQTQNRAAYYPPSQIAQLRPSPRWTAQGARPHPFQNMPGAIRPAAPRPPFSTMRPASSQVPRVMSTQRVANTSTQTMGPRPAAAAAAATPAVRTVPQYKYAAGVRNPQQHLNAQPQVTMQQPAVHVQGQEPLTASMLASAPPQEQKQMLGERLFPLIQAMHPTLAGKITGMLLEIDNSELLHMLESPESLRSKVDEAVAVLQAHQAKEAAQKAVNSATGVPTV

[5] = target: Eukaryotic translation initiation factor 4H (Homo sapiens, UniProt Q15056); assay: eIF4H binding inhibition – biochemical, uHTS, fluorescence polarization, translation initiation inhibitor project, primary screen (AID 2012)
[6] = A cytotoxicity screen of small molecule inhibitors of the PhoP region in Salmonella typhi identified in the primary screen. [Related pubchem assays: 1850, 1864, 1985 ]; assay type: functional
[7] = target: T2, Short transient receptor potential channel 4 (Mus musculus, UniProt Q9QUQ5); assay: block of DAMGO-driven TRPC4 calcium entry – cell-based, HEK293 TRPC4/mu-opioid, Fluo-4 calcium, dose response (AID 434942); assay type: functional;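 further: potency of inhibitors blocking the TRPC4 calcium response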
T2 sequence (Q9QUQ5 whole entry): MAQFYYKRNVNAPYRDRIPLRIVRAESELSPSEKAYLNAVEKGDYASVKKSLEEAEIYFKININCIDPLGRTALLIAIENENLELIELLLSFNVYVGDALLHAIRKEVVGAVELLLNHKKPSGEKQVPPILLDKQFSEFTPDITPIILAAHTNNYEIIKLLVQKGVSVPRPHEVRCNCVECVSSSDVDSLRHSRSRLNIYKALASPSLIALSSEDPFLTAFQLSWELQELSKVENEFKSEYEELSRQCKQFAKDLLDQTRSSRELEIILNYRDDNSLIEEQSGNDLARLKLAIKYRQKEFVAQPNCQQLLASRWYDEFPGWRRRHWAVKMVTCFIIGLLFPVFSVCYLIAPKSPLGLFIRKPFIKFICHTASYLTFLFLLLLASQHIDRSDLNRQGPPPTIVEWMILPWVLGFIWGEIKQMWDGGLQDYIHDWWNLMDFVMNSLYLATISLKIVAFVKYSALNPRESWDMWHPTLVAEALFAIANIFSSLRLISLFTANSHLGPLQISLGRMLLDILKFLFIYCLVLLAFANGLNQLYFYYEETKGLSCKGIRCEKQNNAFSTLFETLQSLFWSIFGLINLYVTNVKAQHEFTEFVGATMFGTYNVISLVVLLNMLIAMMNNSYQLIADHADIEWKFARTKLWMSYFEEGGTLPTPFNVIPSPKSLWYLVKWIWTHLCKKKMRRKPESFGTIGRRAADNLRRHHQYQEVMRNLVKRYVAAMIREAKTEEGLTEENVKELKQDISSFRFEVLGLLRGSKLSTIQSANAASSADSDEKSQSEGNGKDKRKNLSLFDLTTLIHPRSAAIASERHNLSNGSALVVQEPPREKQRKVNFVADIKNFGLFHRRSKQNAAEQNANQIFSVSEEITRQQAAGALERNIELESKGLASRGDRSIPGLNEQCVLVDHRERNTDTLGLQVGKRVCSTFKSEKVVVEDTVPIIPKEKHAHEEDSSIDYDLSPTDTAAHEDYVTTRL

[8] = A Cell Based Secondary Assay To Explore Cytotoxicity of Compounds that Sensitize Mycobacterium Tuberculosis to Beta-Lactam Antibiotics.; assay type: functional
[9] = target: DNA damage-inducible transcript 3 protein (Mus musculus, UniProt P35639); assay type: functional, Cricetulus griseus
Chain of DNA damage-inducible transcript 3 protein (P35639 whole entry): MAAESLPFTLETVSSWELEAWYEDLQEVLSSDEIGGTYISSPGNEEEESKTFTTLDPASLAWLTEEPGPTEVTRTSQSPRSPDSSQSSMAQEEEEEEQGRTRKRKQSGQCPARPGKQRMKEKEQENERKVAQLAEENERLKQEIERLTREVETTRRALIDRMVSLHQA

HEK293 [10] = assay: cells; assay type: functional, cell-based; conditions: Homo sapiens
HEK293 [11] = assay: NOD2 signaling inhibitors in MDP-stimulated cells, cell-based, uHTS, luminescence (AID 2001); assay type: functional; conditions: Homo sapiens
HEK293 [12] = assay: cells; assay type: functional, cell-based; conditions: Homo sapiens; remark: listed apart in the source
HEK293 [13] = assay: cells; assay type: functional, cell-based; conditions: Homo sapiens; remark: listed apart in the source
HEK293 [14] = assay: inhibition of NOD1-driven NF-kB reporter – cell-based, luminescence, uHTS, primary screen (AID 1578); assay type: functional; conditions: Homo sapiens
[15] = target: Nucleotide-binding oligomerization domain-containing protein 2 (Homo sapiens, UniProt Q9HC29); assay: inhibition of NOD2-driven NF-kB reporter – cell-based, luminescence, uHTS, HEK293 (AID 1566); assay type: functional
[16] = target: T3, Carboxy-terminal domain RNA polymerase II polypeptide A small phosphatase 1 (Homo sapiens, UniProt Q9GZU7); assay: CTDSP1 inhibitors, concentration-response, biochemical, absorbance readout, ultra-high-throughput screen actives (AID 540297); assay type: functional
T3 sequence (Q9GZU7 whole entry): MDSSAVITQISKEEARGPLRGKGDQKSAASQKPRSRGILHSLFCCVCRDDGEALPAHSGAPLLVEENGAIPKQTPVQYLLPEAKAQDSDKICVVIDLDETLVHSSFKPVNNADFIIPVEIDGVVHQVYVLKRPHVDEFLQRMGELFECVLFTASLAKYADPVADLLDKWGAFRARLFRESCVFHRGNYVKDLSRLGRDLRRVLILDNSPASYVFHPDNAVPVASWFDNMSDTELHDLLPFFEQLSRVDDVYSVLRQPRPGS

[17] = THP-1 cell cytotoxicity, dose response, cytotoxicity control for non-replicating M. tuberculosis project (AID 489025); assay type: functional
[18] = viability of HCT116 lacking mutant beta-catenin – cell-based, human colon tumor, dose response (AID 1045); assay type: functional;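 further: HCT116 colon tumor cells with beta catenin knocked out; cells exposed to compound for 60 hours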
Large T antigen = Large T antigen (Simian virus 40, UniProt P03070); assay type: functional, Betapolyomavirus macacae;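 further: Confirmatory-stage PubChem screen for compounds that inhibit SV40 T antigen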
cells = assay type: functional
[19] = viability of PTEN-deleted HCT116 cells – cell-based, HCT116 PTEN knockout, dose response (AID 1047); assay type: functional;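 further: HCT116 colon tumor cells with PTEN knocked out; cells exposed to compound for 60 hours before readout; potency for loss of cell viability measured by luminescence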
[20] = target: Neurotensin receptor type 1 (Homo sapiens, UniProt P30989); assay type: functional;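 further: Image-based confirmatory dose-response assay measuring agonist activity at NTR1; NTR1-expressing U2OS osteosarcoma cells imaged for beta-arrestin GFP spot formation; agonist potency where compounds increase beta-arrestin recruitment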
Chain of Neurotensin receptor type 1 (P30989 whole entry): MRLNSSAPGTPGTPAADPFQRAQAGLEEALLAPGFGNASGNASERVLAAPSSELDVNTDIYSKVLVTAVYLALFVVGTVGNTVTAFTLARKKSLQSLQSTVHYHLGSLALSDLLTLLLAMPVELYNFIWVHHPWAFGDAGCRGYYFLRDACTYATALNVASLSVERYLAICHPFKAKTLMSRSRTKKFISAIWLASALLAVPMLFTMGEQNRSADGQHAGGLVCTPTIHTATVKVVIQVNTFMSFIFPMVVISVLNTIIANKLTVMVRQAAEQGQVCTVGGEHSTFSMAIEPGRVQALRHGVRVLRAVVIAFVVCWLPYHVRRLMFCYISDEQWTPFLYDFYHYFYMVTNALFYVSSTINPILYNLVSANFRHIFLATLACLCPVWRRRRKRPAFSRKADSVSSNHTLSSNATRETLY

[21] = target: T4, Microphthalmia-associated transcription factor (Homo sapiens, UniProt O75030); assay: reducers of TRPM1 reporter luminescence, concentration series – cell-based, SK-MEL-5, cherry-picked, set 3, MITF inhibitor project, dose response (AID 493073); assay type: functional;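 further: SK-MEL-5 melanoma cells with luciferase driven by the MITF target TRPM1 promoter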
T4 sequence (O75030 whole entry): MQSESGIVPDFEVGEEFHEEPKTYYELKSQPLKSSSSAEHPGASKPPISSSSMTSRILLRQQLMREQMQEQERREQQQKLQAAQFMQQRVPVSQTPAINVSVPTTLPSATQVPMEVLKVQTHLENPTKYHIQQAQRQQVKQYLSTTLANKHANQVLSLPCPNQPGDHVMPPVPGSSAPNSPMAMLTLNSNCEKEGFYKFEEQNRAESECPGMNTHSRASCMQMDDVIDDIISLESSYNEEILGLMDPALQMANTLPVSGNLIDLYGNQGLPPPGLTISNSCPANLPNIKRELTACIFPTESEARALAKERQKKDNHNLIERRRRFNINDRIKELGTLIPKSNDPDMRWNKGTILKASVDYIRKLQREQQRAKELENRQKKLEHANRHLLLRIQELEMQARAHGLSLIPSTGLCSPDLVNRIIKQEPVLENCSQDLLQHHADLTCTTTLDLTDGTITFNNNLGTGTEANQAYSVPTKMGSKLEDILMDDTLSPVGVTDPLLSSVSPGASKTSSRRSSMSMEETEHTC

Protein skinhead-1 = target: T5, Protein skinhead-1 (Caenorhabditis elegans, UniProt P34707); assay type: functional
T5 sequence (P34707 whole entry): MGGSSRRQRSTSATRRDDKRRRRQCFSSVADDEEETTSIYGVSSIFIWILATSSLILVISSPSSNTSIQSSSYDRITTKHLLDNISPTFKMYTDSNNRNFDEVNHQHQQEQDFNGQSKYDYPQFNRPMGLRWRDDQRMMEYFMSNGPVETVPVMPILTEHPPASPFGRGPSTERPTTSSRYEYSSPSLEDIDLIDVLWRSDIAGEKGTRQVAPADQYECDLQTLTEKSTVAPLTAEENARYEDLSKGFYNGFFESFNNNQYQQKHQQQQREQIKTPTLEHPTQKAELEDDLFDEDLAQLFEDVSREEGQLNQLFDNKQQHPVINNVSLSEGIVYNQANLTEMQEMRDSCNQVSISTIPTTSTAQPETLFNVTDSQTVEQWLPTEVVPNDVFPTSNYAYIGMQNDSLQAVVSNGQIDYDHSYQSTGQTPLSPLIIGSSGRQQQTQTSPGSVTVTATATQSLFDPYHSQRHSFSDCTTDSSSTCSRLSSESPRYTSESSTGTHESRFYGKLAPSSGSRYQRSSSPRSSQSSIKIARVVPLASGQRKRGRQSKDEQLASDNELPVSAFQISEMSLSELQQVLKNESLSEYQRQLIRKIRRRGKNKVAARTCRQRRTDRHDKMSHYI

Compound: O=C(CN1C(=O)S/C(=C\c2ccc(-c3cc(C(=O)O)ccc3Cl)o2)C1=O)Nc1ccc2c(c1)OCO2
- IC50 [1]: > 99 µM (inactive)
- IC50 [2]: > 50 µM (inactive)
- IC50 [3]: > 56.8 µM (not active)

Compound: CCN1C(NCCc2ccccn2)=N[C@@H](c2cccc(F)c2)C(C(=O)OC)=C1C
- IC50 [4]: 13.4 µM (active)
- IC50 [5]: > 100 µM (inactive)

Compound: COC(=O)c1cc2oc(C)cc2n1CC(=O)Nc1ccc(C)c(C)c1
- EC50 [6]: > 50 µM (active)

Compound: O=C(c1cccc(C(=O)N2CCN(c3ccc(F)cc3)CC2)c1)N1CCN(c2ccc(F)cc2)CC1
- EC50 [7]: 0.841 µM (active)
- CC50 [8]: > 40 µM (active)

Compound: CCc1ccc(OCCNC(=O)c2ccccc2SCc2ccccc2)cc1
- Absolute IC50 (CHOP) [9]: 10 µM

Compound: CCn1nc(NC(C)=O)c2cc3cccc(C)c3nc21
- IC50 [4]: 7.59 µM (active)
- IC50 [5]: > 100 µM (inactive)

Compound: CN1CCc2nc(SCC(=O)Nc3ccc(Cl)cc3)c(C#N)cc2C1
- EC50 [6]: > 50 µM (active)

Compound: COc1ccc(C2=NN(C(=O)c3ccco3)C(c3cc4ccccc4nc3Cl)C2)cc1 (configuration not stated)
- Absolute IC50 (CHOP) [9]: 10 µM

Compound: COc1ccc2c(c1)c(=O)oc1c(C)c(OCc3ccc(C(=O)O)cc3)ccc12
- IC50 (HEK293 [10]): 14.4 µM (active)
- IC50 (HEK293 [11]): > 20 µM (inactive)
- IC50 (HEK293 [12]): > 20 µM (inactive)
- IC50 (HEK293 [13]): > 20 µM (inactive)
- EC50 (HEK293 [14]): > 20 µM (inactive)
- EC50 [15]: > 20 µM (inactive)
- IC50 [16]: 2.01 µM (active)

Compound: Cc1cccc(N2CCN(C(=O)Cn3sc4nc(C)cc(C)c4c3=O)CC2C)c1 (configuration not stated)
- CC50 [17]: > 40 µM (active)
- EC50 [18]: 17 µM (active)
- IC50 (Large T antigen): 18.1 µM (active)
- IC50 (cells): 23.8 µM (active)
- IC50 [2]: > 50 µM (inactive)
- EC50 [19]: 17 µM (active)
- IC50 [3]: 16.7 µM (active)

Compound: Cn1cc([N+](=O)[O-])c(C(=O)Nc2nc(-c3ccc(Cl)cc3)cs2)n1
- EC50 [18]: 0.523 µM (active)
- EC50 [20]: 3.8 µM (active)
- EC50 [19]: 0.596 µM (active)
- AC50 [21]: 10.5 µM (active)

Compound: FC(F)(F)c1cc(-c2cccs2)nc(-n2cc(Br)cn2)n1
- IC50 (Protein skinhead-1): > 100 µM (inactive)
- Absolute IC50 (CHOP) [9]: 10 µM

Compound: Cc1c(C(=O)N2CCN(Cc3ccccc3)CC2)sc2ncnc(N3CCOCC3)c12
- EC50 [6]: > 50 µM (active)

Compound: O=C(NC(Cc1ccccc1)c1nc2ccccc2[nH]1)C1CC(=O)N(c2ccc3c(c2)OCCO3)C1 (configuration not stated)
- IC50 [4]: 8.72 µM (active)
- IC50 [16]: 41.4 µM (active)
- IC50 [5]: 56.2 µM (active)
